# Assay results taken from US20160279187A1, “CALPAIN INHIBITORS FOR IBD AND COLORECTAL CANCER TREATMENT” (UNIVERSITY OF HAWAII, priority 2013, published 2016).
# Where a SMILES comes first, the peptide text is derived from it. The star is where a group is joined. Cbz = O=C(OCc1ccccc1)*; CH2F = FC*
# Key:
# [1] = system: Bone marrow derived macrophages (BMDM); assay: cytokine production by activated bone marrow derived macrophages (CBA); type: cell-based, mouse; details: 20 μg/ml; TNFα primed, E. faecalis activated BMDM
# Description: (§1) Bone marrow derived macrophages (BMDM) were prepared as previously described by methods known to those skilled in the art. On day 5 of culture, 2×10^6 BMDM were seeded in 6-well plates and the following day were primed for 18 h with TNFα (20 ng/mL), followed by 1 h stimulation with E. faecalis (1 μg/mL; ATCC). Stimulation with E. faecalis was conducted in the presence of the zLLY-CH2F calpain-2 inhibitor (20 μg/mL) or DMSO as a control. Media was removed from treated BMDM, centrifuged at 300×g for 5 min and supernatent analyzed using the Cytometric Bead Array Mouse Inflammation Kit (BD Biosciences, San Jose, Calif.). Cytokine data were analyzed using Flowjo software (Ashland, Oreg.) and GraphPad Prism version 4.0 (GraphPad, La Jolla, Calif.). Cell pellets were lysed and analyzed for IκB and NFκB by Western blot as previously described (Miyazaki, T. et al. Journal of Atherosclerosis and Thrombosis 20, 228-237, 2013). In other experiments, mouse CT-26.WT and human HT-29 colon cancer cells were plated in 96-well plates at 10^3 cells/well with 20 μg/mL inhibitor or DMSO, followed by analyses for IκB and NFκB by Western blot as described above for BMDM. For proliferation assays, fresh media with 20 μg/mL inhibitor or DMSO were added every 2 d. Each day 4 wells were quantified using Celltiter MTS reagent (Promega) and the resulting signal was used to generate a proliferation curve. Calpain activity was measured using a Calpain activity assay kit (BioVision, Inc., Milpitas, Calif.) as previously described. Colons were harvested on day 4 and calpain activity measured. Enzyme-linked immunosorbant assay (ELISA) analyses of cecum hemoglobin has been previously described (Miyazaki, T. et al. Journal of Atherosclerosis and Thrombosis 20, 228-237, 2013).
# To determine if a similar mechanism may be contributing to the effect of the calpain-2 inhibition in the DSS model of colitis, macrophages were analyzed for NFκB activation and inflammatory cytokine secretion. Bone marrow derived macrophages were primed […] with TNFα (20 ng/ml) and activated with E. faecalis (1 μg/ml) for 1 h in the presence or absence of calpain-2 inhibitor (20 μg/ml). Supernatants were evaluated for a panel of cytokines including IFNγ, TNFα, IL-6, and MCP-1, IL-10, and IL-12. Real-time PCR was performed on total RNA extracted from colon tissues to access levels of cytokines. Media was collected from wells and cytokines assessed by CBA kit (BD Biosciences). For IκB blotting cells were lysed and SDS-PAGE was performed. Membranes were stained with anti-IκB (Cell Signalling) and anti-βactin (Santa Cruz). For NfκB blotting an NFκB Activation Kit (Five Photon) was used to isolate nuclear fractions. These fractions were transferred using SDS-PAGE. The membranes were stained with anti-NFκB (Santa Cruz) or anti-TATA (Abcam). Data are mean±SE (n=3) and represent results from three independent experiments. *p<0.05; one way ANOVA followed by Tukey post-test. […] Importantly, those cytokines most affected by the calpain-2 are regulated by NFκB.
# [2] = target: T1, M-Calpain activity in HT-29 cells (Homo sapiens, UniProt P17655); assay: Calpain Activity Assay Kit (BioVision), HT-29; type: cell-based; details: HT-29, vs DMSO, 1 hour
# T1 construct: endogenous in cells; host or cells: HT-29 human colorectal cancer cells
# T1 sequence (P17655 20-700 limits assumed): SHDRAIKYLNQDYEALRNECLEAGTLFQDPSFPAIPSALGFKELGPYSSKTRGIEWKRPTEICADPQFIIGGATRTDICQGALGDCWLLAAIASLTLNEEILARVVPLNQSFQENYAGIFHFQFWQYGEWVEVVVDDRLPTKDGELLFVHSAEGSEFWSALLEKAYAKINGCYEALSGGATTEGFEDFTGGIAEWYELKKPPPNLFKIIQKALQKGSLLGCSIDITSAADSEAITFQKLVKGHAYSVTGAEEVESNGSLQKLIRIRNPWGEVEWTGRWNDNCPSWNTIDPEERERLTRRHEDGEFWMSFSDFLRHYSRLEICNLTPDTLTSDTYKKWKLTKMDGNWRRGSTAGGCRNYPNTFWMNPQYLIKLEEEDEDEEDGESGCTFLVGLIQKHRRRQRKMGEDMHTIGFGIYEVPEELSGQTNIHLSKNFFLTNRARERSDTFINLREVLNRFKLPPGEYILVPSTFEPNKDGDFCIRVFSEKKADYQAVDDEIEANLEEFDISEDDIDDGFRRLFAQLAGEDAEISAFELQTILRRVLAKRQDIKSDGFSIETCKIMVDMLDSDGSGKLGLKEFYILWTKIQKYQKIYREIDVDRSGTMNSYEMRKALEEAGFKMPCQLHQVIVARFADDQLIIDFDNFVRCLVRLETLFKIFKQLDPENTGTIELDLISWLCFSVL
# T1 sequence (P04632 1-268 partner): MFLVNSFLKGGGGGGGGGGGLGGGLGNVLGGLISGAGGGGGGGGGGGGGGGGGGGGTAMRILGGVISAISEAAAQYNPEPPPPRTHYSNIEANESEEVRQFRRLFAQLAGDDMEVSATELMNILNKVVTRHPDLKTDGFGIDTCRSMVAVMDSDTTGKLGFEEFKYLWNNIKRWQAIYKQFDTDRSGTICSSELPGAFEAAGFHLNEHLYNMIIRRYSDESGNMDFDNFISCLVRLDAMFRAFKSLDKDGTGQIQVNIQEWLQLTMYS
# Description: as §1, with “In other experiments, mouse CT-26.WT and human HT-29 colon cancer cells were plated in 96-well plates at 10^3 cells/well with 20 μg/mL inhibitor or DMSO, followed by analyses for IκB and NFκB by Western blot as described above for BMDM. For proliferation assays, fresh media with 20 μg/mL inhibitor or DMSO were added every 2 d.” left out, “Enzyme-linked immunosorbant assay (ELISA) analyses of cecum hemoglobin has been previously described (Miyazaki, T. et al. Journal of Atherosclerosis and Thrombosis 20, 228-237, 2013).” left out
compound,measurement,setting,value
"CC(C)C[C@H](NC(=O)OCc1ccccc1)C(=O)N[C@@H](CC(C)C)C(=O)N[C@@H](Cc1ccc(O)cc1)C(=O)CF [zLLY-CH2F, Z-LLY-CH2F] (Cbz-Leu-Leu-Tyr-CH2F)",production of IFNγ,[1],significant decrease
same,production of IL-6,[1],significant decrease
same,production of IL-10,[1],not significantly affected
same,production of IL-12,[1],not significantly affected
same,production of MCP-1,[1],significant decrease
same,production of TNFα,[1],significant decrease
same,M-Calpain activity,[2],reduced
